# Like-named read-outs stand apart in the source and are kept apart here.
# What was measured:
# GBA [1] = target: T1, GBA (Mus musculus (Mouse), UniProt P17439); assay: Labeling specificity in cell homogenates (SDS-PAGE, fluorescence scanning); conditions: 100 nM, 30 min, 37° C., homogenates of cultured RAW cells
# Target sequence in this assay (P17439 20-515 limits assumed): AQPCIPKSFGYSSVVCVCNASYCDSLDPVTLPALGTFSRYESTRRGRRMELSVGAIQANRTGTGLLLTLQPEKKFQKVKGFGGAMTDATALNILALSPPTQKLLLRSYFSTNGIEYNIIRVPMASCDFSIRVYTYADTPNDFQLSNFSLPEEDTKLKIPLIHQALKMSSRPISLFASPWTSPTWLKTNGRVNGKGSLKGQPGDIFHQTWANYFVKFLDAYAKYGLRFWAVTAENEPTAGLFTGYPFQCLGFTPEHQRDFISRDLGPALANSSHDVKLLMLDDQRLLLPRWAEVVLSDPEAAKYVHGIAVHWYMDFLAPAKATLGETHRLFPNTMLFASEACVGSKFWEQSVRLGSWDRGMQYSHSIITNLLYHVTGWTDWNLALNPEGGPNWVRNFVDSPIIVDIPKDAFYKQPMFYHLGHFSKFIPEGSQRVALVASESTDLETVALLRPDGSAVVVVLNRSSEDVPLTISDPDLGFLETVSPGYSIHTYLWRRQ
# GBA [2] = target: T2, GBA (Homo sapiens (Human), UniProt P04062, R534H); assay: Sensitivity of detection of ABP-labeled GBA on slab gel by fluorescence scanning
# Method: After the incubation, we resolved the protein preparations with SDS-PAGE and analyzed the labeled proteins by fluorescence scanning of the slab gel on a Typhoon Variable Mode Imager (FIG. 24a). Labeled recombinant GBA migrated at the expected mass of 57 kDa. […] We could detect as little as 20 attomol GBA by fluorescence scanning. […] Apparently, nearly all of the probe had been covalently bound to recombinant GBA, consistent with its high affinity for binding.
# GBA [3] = target: T2, GBA; assay: GBA enzyme activity assay with 4-methylumbelliferyl β-D-glucopyranoside, inhibitor preincubated 30 min (apparent IC50); type: biochemical
# [4] = system: lactase (lactase-phloridzin hydrolase: LPH); assay: Lactase activity inhibition (liberated glucose); conditions: incubation for 30 min with 1 mM
# GBA [5] = target: T1, GBA; assay: Labeling of GBA in live mice; type: in vivo; conditions: 0.1 nmol intravenously, 2 h
# Method: We next studied the labeling of GBA by MDW941 in intact fibroblasts using time-lapse microscopy. […] As a control, matched mice received the buffer solution intravenously. […] In addition to GBA, MDW933 clearly labeled other proteins that occur in the intestine in the mouse.
# Experimental procedures were all approved by the appropriate ethics committee for animal experiments. C57BI/6J mice were obtained from Harlan and fed a commercially available lab diet (RMH-B; Hope Farms). […] After 2 h of administration the mice were anesthetized with FFM mix (1 ml of fentanylcitrate, 1 ml of midazalam and 2 ml of distilled water), and blood, urine and organs were collected and directly frozen in liquid nitrogen. […] Homogenates were analyzed as described above.
# Target sequence in this assay (P17439 20-515): as the sequence (P17439 20-515 limits assumed) above
# GBA [6] = target: T2, GBA; assay: Continuous substrate release assay for inhibition constants; type: biochemical
# Description: Previously discontinuous methods have been used to determine the inhibition constants of glycosidase inhibitors. […] Therefore the inhibition constants have been determined in a continuous substrate assay which was first described in 1982 (2) and has recently been reappraised in 2010 (3). In these experiments, inhibition of the enzyme and hydrolysis of the substrate proceed concurrently making the situation slightly more complex than the discontinuous (FIG. 39 Scheme 2). The time-dependent interaction of inhibitor (I) with free β-glucosidase (E) was considered to occur in separate stages (A). A rapid reversible interaction is followed by a slower, irreversible reaction that transforms the reversible enzyme-inhibitor complex (EI) into an irreversible enzyme-inhibitor complex (EI*) (FIG. 39 Scheme 2). Progress curves were obtained (FIG. 28a) and apparent rate constant k′ was plotted versus the concentration (FIG. 28b) to obtain estimates of the Ki (equilibrium constant) and ki (rate constant)
# To 100 μL McIlvaine buffer (pH 5.2, 0.2% sodium taurocholate, 0.1% Triton X-100) containing 4-methylumbelliferyl β-D-glucoside (7.5 mM) in Greiner flat bottom black 96-well plate was added 5 μL inhibitor (25× stock in DMSO). The resulting mixture was preincubated at 37° C. for 15 min in a TECAN GENios microplate reader. GBA (2 ng) in McIlvaine buffer (20 μL pH 5.2, 0.2% sodium taurocholate, 0.1% Triton X-100) was preheated to 37° C. for 15 min before being added to the substrate mix. The resulting solution was mixed by horizontal shaking for 15 sec, after which release 4-methylumbelliferyl measured with a TECAN GENios platereader (λex 340 nm and λem 465 nm) for the indicated time. Bleaching of the fluorophore, which was observed during the assay, was corrected by subtracting blanks (100 μL substrate buffer, 5 μL DMSO, 20 μL McIlvaine buffer). Apparent rate constants k′ were obtained by fitting the resulting progress curves (FIG. 28A) to the one-phase association equitation y (y max y0)(1−exp^−kt)yo+in GraphPad Prism version 5.00 for Windows, GraphPad Software, San Diego Calif. USA, www.graphpad.com. Measurements were performed in nine fold and plotting of the obtained k′ values versus [^I0] yielded rectangular hyperbolar functions (FIG. 28B).
# [formula] estimates of Ki app and ki were obtained. The Ki value in the absence of substrate was obtained by correcting the Ki app with […]
# GBA1 [7] = target: GBA1 (Homo sapiens (Human), UniProt P04062); assay: Kinetic constants of GBA1 inhibition (Table 2); type: biochemical; conditions: Table 2 kinetic constants
# GBA1 [8] = target: GBA1 (Homo sapiens (Human), UniProt P04062, N370S); assay: In situ labeling of GBA1 in Gaucher (N370S) fibroblasts; type: cell-based; conditions: 20 nM for 1 hour, N370S GBA1 homozygote fibroblasts
# Method: FIG. 20 presents a schematic illustration of Gaucher treatment (FIG. 20a) via the chaperone isofagimine, whose structure is separately shown in FIG. 20b. […] The fibroblasts were labeled with Fluorophore 1-cyclophellitol (for example 20 nM for 1 hour), wherein about 50% of cellular GBA1 was labeled.
# glucocerebrosidase = glucocerebrosidase (Homo sapiens (Human), UniProt P04062); assay: In situ inhibition of glucocerebrosidase in cells at 18° C. and 37° C.; type: cell-based; conditions: 10 nM, 2 hours
# Description: To identify the mechanism of entry of the probes, we performed a temperature experiment. […] We harvested the cells and determined the residual activity using a fluorogenic substrate assay. […] We therefore exclude that the uptake is solely by endocytosis.
# T2 sequence (P04062 40-536 R534H): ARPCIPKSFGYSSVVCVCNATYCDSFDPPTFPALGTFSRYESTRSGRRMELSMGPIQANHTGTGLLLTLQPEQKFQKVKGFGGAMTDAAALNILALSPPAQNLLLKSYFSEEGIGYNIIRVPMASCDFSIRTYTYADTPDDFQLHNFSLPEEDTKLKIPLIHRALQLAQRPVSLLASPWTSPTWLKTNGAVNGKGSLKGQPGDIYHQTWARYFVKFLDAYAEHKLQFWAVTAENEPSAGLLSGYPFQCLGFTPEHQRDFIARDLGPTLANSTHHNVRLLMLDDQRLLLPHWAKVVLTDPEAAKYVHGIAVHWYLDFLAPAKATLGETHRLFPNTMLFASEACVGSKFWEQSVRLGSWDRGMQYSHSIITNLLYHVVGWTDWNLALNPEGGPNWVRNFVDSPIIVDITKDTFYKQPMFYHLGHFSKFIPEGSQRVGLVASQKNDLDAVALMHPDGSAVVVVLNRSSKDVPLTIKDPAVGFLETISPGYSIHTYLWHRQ
# Sequence of GBA1 (Homo sapiens (Human), UniProt P04062) (P04062 40-536): as the sequence (P04062 40-536 R534H) above, with H495R counted along it
# Sequence of glucocerebrosidase (P04062 40-536): as the sequence (P04062 40-536 R534H) above, with H495R counted along it
# Sequence of GBA1 (Homo sapiens (Human), UniProt P04062, N370S) (P04062 40-536 N409S): as the sequence (P04062 40-536 R534H) above, with N370S, H495R counted along it
structure (smiles),measurement,setting,value
CC1=CC(C)=[N+]2C1=C(CCCCc1cn(C[C@@H]3[C@@H](O)[C@H](O)[C@@H](O)[C@@H]4O[C@H]34)nn1)c1c(C)cc(C)n1[B-]2(F)F [MDW933],labeling specificity,GBA [1],exclusive labeling of GBA
same,amount of labeled GBA detectable by fluorescence scanning,"GBA [2]; 2 pmol GBA with excess probe, 1 h, 37° C., titration on gel",20 attomol
same,amount of probe resulting in detectable GBA on slab gel,"GBA [2]; 2 pmol GBA, 30 min",20 attomol
same,amount of GBA1 detected on slab gel,GBA [2]; ABP-labeled GBA1,10 attomole
same,IC50,"GBA [3]; FIG. 16, ABPs designed for GBA1, read-out: IC50",2 nM
same,IC50,"GBA [3]; rec. GBA1, 30 min, 37 C., pH 5.2 + Tch, Tr, read-out: Apparent IC50 (nM) rec. GBA1: 30 min, 37 C., pH 5.2 + Tch, Tr",2 ± 0.5 nM
same,IC50,"GBA [3]; recombinant GBA, read-out: apparent half-maximal inhibitory concentration (IC50)",1.24 ± 0.04 nM
same,inhibition of lactase activity,[4],~90%
same,in vivo labeling of GBA in brain,GBA [5]; brain,almost no GBA
same,in vivo labeling of GBA in most tissues,GBA [5]; lung and liver,a considerable proportion of GBA
same,Ki,"GBA [6]; equilibrium constant for initial binding, reported with s.e.m.",7 ± 2 nM
same,ki,"GBA [6]; rate constant, reported with s.e.m.",0.127 ± 0.024 min⁻¹
same,ki/Ki,GBA [6]; relative rate constant,296000 M⁻¹ s⁻¹
same,Ki,GBA1 [7],0.95 nM
same,ki,GBA1 [7],0.0236 min⁻¹
same,cellular GBA1 labeled,GBA1 [8],about 50%
same,in situ glucocerebrosidase activity,glucocerebrosidase,blocked glucocerebrosidase activity in situ

# From patent US9056847B2, “Activity based probes (ABPs) interacting with glycosidases” (ACADEMISCH MEDISCH CENTRUM BIJ UNIVERSITEIT VAN AMSTERDAM, priority 2010, dated 2015)
